Assay results taken from BindingDB's records for doi:10.7270/Q26T0K34 (The Scripps Research Institute Molecular Screening Center, 2010).

Target: Peroxisome proliferator-activated receptor gamma (Homo sapiens, UniProt P37231)
Experiment: PubChem AID 463257

Sequence of Peroxisome proliferator-activated receptor gamma (P37231 whole entry, looked up): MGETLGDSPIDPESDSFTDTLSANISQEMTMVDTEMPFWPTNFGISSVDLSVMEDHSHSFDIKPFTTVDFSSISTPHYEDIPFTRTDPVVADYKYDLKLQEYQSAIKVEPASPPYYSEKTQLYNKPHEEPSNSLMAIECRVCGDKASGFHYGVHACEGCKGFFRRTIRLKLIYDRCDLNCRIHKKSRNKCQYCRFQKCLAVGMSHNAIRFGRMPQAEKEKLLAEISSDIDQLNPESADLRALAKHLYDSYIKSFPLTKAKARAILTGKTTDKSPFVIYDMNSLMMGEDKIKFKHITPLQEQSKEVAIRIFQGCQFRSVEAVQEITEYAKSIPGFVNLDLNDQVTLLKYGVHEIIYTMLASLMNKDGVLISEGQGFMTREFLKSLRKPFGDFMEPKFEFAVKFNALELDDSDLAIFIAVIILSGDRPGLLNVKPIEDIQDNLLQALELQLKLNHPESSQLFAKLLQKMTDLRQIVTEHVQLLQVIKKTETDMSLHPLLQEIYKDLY

Question: Which IC50 does the source give for `COc1ccc(-n2cc(O)c(-c3nc(-c4ccccc4)cs3)c2N)cc1` [5-amino-1-(4-methoxyphenyl)-4-(4-phenyl-1,3-thiazol-2-yl)-2H-pyrrol-3-one] here?
Answer: Its IC50 is 24.7 µM.
